Data from patent US20250109140A1, “5-[5-(PIPERIDIN-4-YL)THIENO[3,2-C]PYRAZOL-2-YL]INDAZOLE DERIVATIVES AND RELATED COMPOUNDS AS MODULATORS FOR SPLICING NUCLEIC ACIDS AND FOR THE TREATMENT OF PROLIFERATIVE DISEASES” (REMIX THERAPUTICS INC., priority 2022, published 2025).
Read-outs that look alike come from different tables or passages of the source.

Legend:
HTT mRNA = experiment: Splicing RT-qPCR assay, HTT canonical (CJ) and alternative (AJ) junction mRNA; assay type: cell-based; settings: Homo sapiens; for EC50: AC50 = 50% response in AJ mRNA increase
How it was run: (§1)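 A673 or K562 cells were exposed for 24 h at 37 °C to an 11-point 3-fold dilution series (top 10 uM final, DMSO ≤0.25%). Lysates were analysed by one-step RT-qPCR for canonical (CJ) and alternative (AJ) junctions. Values were normalized to GAPDH, GUSB or PPIA and to DMSO (ΔΔCt), then converted to percentage response.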

MYB mRNA = experiment: Splicing RT-qPCR assay, MYB canonical (CJ) and alternative (AJ) junction mRNA; assay type: cell-based; settings: Homo sapiens; for EC50: AC50 = 50% response in AJ mRNA increase
How it was run: as §1

SMN2 mRNA = experiment: Splicing RT-qPCR gene panel, SMN2 canonical junction (CJ) mRNA; assay type: cell-based; settings: Homo sapiens; Table 8; larger gene panel, decrease in CJ mRNA levels
How it was run: as §1

HiBiT-tagged MYB protein = experiment: HiBiT protein abundance assay, MYB (K562 HiBiT knock-in cells); assay type: cell-based, human; settings: 24 hours treatment
Protocol: (§2) Compounds described herein were used to screen for effects on quantitative protein abundance using a HiBit assay system (Promega). Quantitative protein abundance was determined by measuring the protein levels of HiBit-tagged protein targets expressed in cell culture via luminescence using the Nano-Glo HiBiT Lytic Detection System, which uses a split complementation assay format to reconstitute NanoBiT enzyme to generate a luminescent signal. A protein abundance assay was developed such that endogenous protein targets could be modified with the HiBiT peptide tag and their abundance could be assessed after compound treatment. Briefly, K562 cell lines containing a HiBiT-modification were treated with various compounds described herein (e.g., compounds of Formulas (I), or (II)). After treatment for 24 hours, the protein abundance of a specific target was determined by measuring luminescence.
(§3) Cells were maintained in IMDM with 10% FBS. Before the assay, cells were diluted with […] growth media (IMDM+[…] media) and were seeded in a 384-well plate at a density of 10000 cells/well (for each cell line listed in Table 6). Each compound was prepared as a 10-point 3-fold serial dilution in DMSO with the top dose at a final concentration of […] in the well. Unmodified K562 cells were added at the previously specified density with DMSO to serve as an assay baseline and positive control (PC) and DMSO only with the respective modified cell lines was added to the negative control (NC) columns. Final DMSO concentration was kept at or below 0.25%. Treated cell plates were placed in an incubator at 37° C. with […] for 24 hours. After 24 hours, 25 μL of Complete HiflitLytic reagent was added to each well at room temperature (e.g. one plate requiring 10 mL Lytic Buffer, 100 μL LgBiT Protein, 200 μL Lytic Substrate), shaken for 5 minutes at 600 RPM, then left to sit for 10 minutes for signal to stabilize before reading on a Spark Cyto plate reader (Tecan) with a 500 ms measurement time.
(§4) To determine compound effects on protein abundance of each target in Table 6, the percent response for each respective cell line was calculated at each compound concentration as follows:
(§5) For the normalized response at each concentration, a four-parameter logistical regression was fit to the data and the response was interpolated at the 50% value to determine a concentration for protein abundance at 50% (IC50) the untreated control.

HiBiT-tagged HTT protein = experiment: HiBiT protein abundance assay, HTT (K562 HiBiT knock-in cells); assay type: cell-based, human; settings: 24 hours treatment
Protocol: as §2, §3, §4, §5

[1] = test system: K562 (human chronic myelogenous leukemia) cells; experiment: Cell viability, Cell Titer Glo 2.0 assay, K562 cells; assay type: cell-based; settings: 72 hours
Protocol: Compounds described herein were screened for toxicity in K562 (human chronic myelogenous leukemia) and SH-SY5Y (human neuroblastoma) cells using a Cell Titer Glo 2.0 assay.
Cells were plated at 500 cells/well (K562 cells) in 45 μL of IMDM supplemented with 10% FBS in a 384-well opaque plate. Wells containing only medium were used as a blank control. Test compounds (e.g., compounds of Formula (I), (III), (IV), (V), or (VI)) were first serially diluted in DMSO then diluted 1:100 with IMDM+10% FBS. The final concentration of DMSO was 0.1% in each well. The cells were incubated for 72 hours at 37° C. and 5% CO2 before assaying with Cell Titer Glo 2.0 reagent.

Target C = experiment: HiBiT protein abundance assay, Target C (K562 HiBiT knock-in cells); assay type: cell-based, human; settings: 24 hours treatment
Protocol: • Promega Nano-Glo HiBiT Lytic Detection System (cat #N3030) • Corning 384-well TC-treated microplates (cat #3570) • Synthego Engineered Cells Knock-In Clones
as §3, §4, §5

Target C mRNA = experiment: Splicing RT-qPCR gene panel, Target C canonical junction (CJ) mRNA; assay type: cell-based; settings: Homo sapiens; Table 8; larger gene panel, decrease in CJ mRNA levels
How it was run: as §1

[2] = Table 7, RT-qPCR, A673 or K562 cells, 24 hours treatment
[3] = Table 7, IC50 = 50% response in CJ mRNA decrease, RT-qPCR, A673 or K562 cells, 24 hours treatment, read-out: HTT CJ
[4] = Table 8, larger gene panel, decrease in CJ mRNA levels, read-out: HTT CJ IC50
[5] = Table 7, IC50 = 50% response in CJ mRNA decrease, RT-qPCR, A673 or K562 cells, 24 hours treatment, read-out: MYB CJ
[6] = Table 8, larger gene panel, decrease in CJ mRNA levels, read-out: MYB CJ IC50

SMILES | EC50 (HTT mRNA; [2]) [nM] | IC50 (HTT mRNA; [3]) [nM] | IC50 (HTT mRNA; [4]) [nM] | EC50 (MYB mRNA; [2]) [nM] | IC50 (MYB mRNA; [5]) [nM] | IC50 (MYB mRNA; [6]) [nM] | IC50 (SMN2 mRNA) [nM] | IC50 (HiBiT-tagged MYB protein) [nM] | IC50 (HiBiT-tagged HTT protein) [nM] | IC50 [1] [nM] | IC50 (Target C) [nM] | IC50 (Target C mRNA) [nM]
Cc1cn2nc(-n3cc4cc(C5CCNCC5)sc4n3)cc(C)c2n1 [Compound 110, 4-(2-[2,8-dimethylimidazo[1,2-b]pyridazin-6-yl]thieno[2,3-c]pyrazol-5-yl) piperidine] | 100 to 1000 | 100 to 1000 | 100 to 1000 | 100 to 1000 | 1000 to 10000 | 100 to 1000 | < 100 | 1000 to 10000 | 1000 to 10000 | 1000 to 10000 | 1000 to 10000 | 
Cn1cc2cc(-c3cc4nn(C5CCNCC5)cc4s3)cc(F)c2n1 [Compound 121, 7-fluoro-2-methyl-5-[2-(piperidin-4-yl)thieno[3,2-c]pyrazol-5-yl]indazole] | 100 to 1000 | < 100 | 100 to 1000 | 100 to 1000 | 100 to 1000 | 100 to 1000 | < 100 | 100 to 1000 | < 100 |  | < 100 | < 100
Cc1cn2cc(-n3cc4sc(C5CCNCC5)cc4n3)cc(C)c2n1 [Compound 173] | 1000 to 10000 | 1000 to 10000 | 1000 to 10000 | > 10000 | > 10000 | > 10000 | 1000 to 10000 |  |  | 1000 to 10000 |  | > 10000
COc1c(-c2nc3sc(C4CCNCC4)cc3s2)cc2cn(C)nc2c1F [Compound 242, 7-fluoro-6-methoxy-2-methyl-5-[5-(piperidin-4-yl)thieno[2,3-d][1,3]thiazol-2-yl]indazole] | < 100 | < 100 | < 100 | < 100 | < 100 | < 100 | < 100 |  |  |  |  | < 100
COc1c(-c2cc3cn(C4CCNCC4)nc3s2)cc2c[nH]nc2c1C [Compound 248] | > 10000 | > 10000 | > 10000 | > 10000 | > 10000 | > 10000 | > 10000 |  |  |  |  | > 10000
Cc1cn2cc(-c3nc4sc(C5CCNCC5)cc4s3)nc(C)c2n1 [Compound 270, 4-(2-{2,8-dimethylimidazo[1,2-a]pyrazin-6-yl}thieno[2,3-d][1,3]thiazol-5-yl)piperidine] | 100 to 1000 | < 100 | 100 to 1000 | 1000 to 10000 | 100 to 1000 | 1000 to 10000 | < 100 |  |  |  |  | 100 to 1000
Cc1cn2cc(-c3nc4sc(C5CCNCC5)cc4s3)ccc2n1 [Compound 271, 4-(2-{2-methylimidazo[1,2-a]pyridin-6-yl}thieno[2,3-d][1,3]thiazol-5-yl)piperidine] | 100 to 1000 | < 100 | 100 to 1000 | 100 to 1000 | 100 to 1000 | 100 to 1000 | < 100 |  |  |  |  | 100 to 1000
Cn1cc2cc(N3Cc4cc(C5CCNCC5)sc4C3=O)cc(F)c2n1 [Compound 1118, 5-(7-fluoro-2-methylindazol-5-yl)-2-(piperidin-4-yl)-4H-thieno[2,3-c]pyrrol-6-one] | 100 to 1000 | 100 to 1000 | 100 to 1000 | 1000 to 10000 | 1000 to 10000 | 1000 to 10000 | < 100 |  |  |  |  | 1000 to 10000
Cn1cc2cc(N3Cc4sc(C5CCNCC5)cc4C3=O)cc(F)c2n1 [Compound 1119, 5-(7-fluoro-2-methylindazol-5-yl)-2-(piperidin-4-yl)-6H-thieno[2,3-c]pyrrol-4-one] | < 100 | < 100 | < 100 | 100 to 1000 | 100 to 1000 | 100 to 1000 | < 100 |  |  |  |  | 100 to 1000
Cn1cc2cc(N3Cc4sc(C5CCNCC5)cc4C3=O)ccc2n1 [Compound 1120] | 1000 to 10000 | 1000 to 10000 | 1000 to 10000 | 1000 to 10000 | 1000 to 10000 | 1000 to 10000 | 100 to 1000 |  |  |  |  | 1000 to 10000
Cc1cc(N2Cc3sc(C4CCNCC4)cc3C2=O)cc2cn(C)nc12 [Compound 1122] | 100 to 1000 | 100 to 1000 | 100 to 1000 | 100 to 1000 | 100 to 1000 | 100 to 1000 | 100 to 1000 |  |  |  |  | 100 to 1000
Cn1cc2cc(N3Cc4sc(C5CCNCC5)cc4C3=O)ncc2n1 [Compound 1125] | 1000 to 10000 | 1000 to 10000 | 1000 to 10000 | 1000 to 10000 | 1000 to 10000 | 1000 to 10000 | 100 to 1000 |  |  |  |  | 1000 to 10000
Cc1cn2nc(N3Cc4sc(C5CCNCC5)cc4C3=O)cc(C)c2n1 [Compound 1127] | < 100 | < 100 | < 100 | 100 to 1000 | 100 to 1000 | 100 to 1000 | < 100 |  |  |  |  | 100 to 1000
